The record followed here is patent US20250270190A1, “KIT INHIBITORS” (BLUEPRINT MEDICINES CORPORATION, priority 2022, published 2025).

The structures appear in SMILES notation.

For the test, the target named is T1, c-kit autophosphorylation (Phospho c-Kit Tyr721) in HMC 1.1 (exon 11/13) cells, V654A (Homo sapiens, UniProt P10721, V560G/V654A).
T1 construct: endogenous in cells; host or cells: HMC 1.1 (exon 11/13) cells
T1 sequence (P10721 26-976 V560G/V654A): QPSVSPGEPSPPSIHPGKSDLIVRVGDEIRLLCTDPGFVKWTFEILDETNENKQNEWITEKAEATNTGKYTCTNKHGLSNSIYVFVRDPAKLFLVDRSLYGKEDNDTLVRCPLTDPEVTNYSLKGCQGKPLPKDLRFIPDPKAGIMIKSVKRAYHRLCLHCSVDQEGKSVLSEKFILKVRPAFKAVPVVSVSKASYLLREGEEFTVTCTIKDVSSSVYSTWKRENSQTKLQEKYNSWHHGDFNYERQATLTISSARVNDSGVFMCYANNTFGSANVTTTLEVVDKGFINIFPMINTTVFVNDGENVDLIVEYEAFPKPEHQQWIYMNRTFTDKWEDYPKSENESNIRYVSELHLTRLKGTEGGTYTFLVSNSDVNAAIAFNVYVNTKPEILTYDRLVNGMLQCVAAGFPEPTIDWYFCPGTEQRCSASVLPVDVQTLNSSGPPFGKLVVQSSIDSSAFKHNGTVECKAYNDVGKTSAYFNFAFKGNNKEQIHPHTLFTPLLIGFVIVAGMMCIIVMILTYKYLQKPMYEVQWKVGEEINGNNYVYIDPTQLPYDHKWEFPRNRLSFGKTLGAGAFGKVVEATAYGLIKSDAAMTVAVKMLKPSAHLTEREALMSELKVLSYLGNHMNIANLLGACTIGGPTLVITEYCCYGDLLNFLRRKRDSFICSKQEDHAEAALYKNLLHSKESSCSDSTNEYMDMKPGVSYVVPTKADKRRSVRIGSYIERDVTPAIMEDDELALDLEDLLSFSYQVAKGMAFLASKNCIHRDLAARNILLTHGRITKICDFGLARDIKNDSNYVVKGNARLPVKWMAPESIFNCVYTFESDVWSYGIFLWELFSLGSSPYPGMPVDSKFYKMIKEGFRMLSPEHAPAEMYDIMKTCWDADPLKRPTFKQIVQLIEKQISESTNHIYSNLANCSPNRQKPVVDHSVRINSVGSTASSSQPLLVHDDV
In words: pKIT Meso Scale Discovery (MSD) assay, inhibition of autophosphorylation of KIT, HMC1.1_V654A. To be noted: Table 1, cell line not named for Table 1, b1056 names pKIT HMC1.1_V654A, read-out: Code (IC50 for inhibition of autophosphorylation of KIT, pKIT MSD assay). It counts as cell-based. The text has this: In this MSD assay, specific capture antibodies for the analytes were coated in arrays in each well of a 96-well carbon electrode plate surface. The detection system used SULFO-TAG™ labels that emit light upon electrochemical stimulation initiated at the electrode surfaces of the […] and MULTI-SPOT® plates. The electrical stimulation was decoupled from the output signal, which was light and generated assays with minimal background. The goal of this assay was to assess the percent inhibition of autophosphorylation of c-kit in cells when treated with compounds of the disclosure in a dose-dependent manner.
HMC1.1 cells were maintained in IMDM media supplemented with 20% Calf Serum with Iron and 100 units/mL Penicillin-Streptomycin and grown in a 37° C. humidified tissue culture incubator. HMC1.1 cells were passaged by 1:5 dilution into fresh IMDM media supplemented with 20% Calf Serum with Iron and 100 units/mL Penicillin-Streptomycin every 5-7 days and were discarded after 20 passages.
Seeding was performed as follows: HMC cells were brought to 1×10^6 cells/mL in fresh phenol red free, serum-free, iron-free IDM media with Pen/Strep; cells were seeded/plated into respective U-bottom plate by dispensing 50 μL/well (50,000 cells) using the Multidrop, and covered and incubated cells at 37° C. in a humidified tissue culture incubator for 4 hours (starvation).
Dosing was performed as follows: The compound mother plate was prepared by adding 16 μL of compound to 24 μL of DMSO to row A, odd-numbered columns of screen matrix plate. […] Intermediate plates were prepared in V-bottom plates by dispensing 98 μL of phenol red free, serum free IMDM media with Pen/Strep into all wells. 2 μL DMSO or 2 μL 10 mM staurosporine was added to appropriate control wells. At the end of four hours, the Bravo protocol 10 cpds vertical dose MSD 2 U-plates 96-well was used to: add 2 μL from the compound plate to the intermediate plate and dose cells with 7 μL from the intermediate plate. The cells were covered and incubated at 37° C. in a humidified tissue culture incubator for 90 min. The complete lysis buffer was prepared with AlphaLISA 5× Lysis Buffer supplemented with 1× protease inhibitor cocktail and kept on ice. The cells were pelleted by centrifuging plate at 2500×g for 5 min, 4° C. and media removed. Complete lysis buffer was added (14 μL/well). The cells were covered and shaken at 4° C. on a plate shaker at 600 rpm for 30 min and kept cold
The MSD protocol was preformed as follows: Tris Wash Buffer (2L) was prepared by diluting 10× stock of Tris Wash Buffer to 1× in water. Blocking Solution was prepared by dissolving 600 mg Blocker A in 20 mL 1× Trish Wash Buffer (per plate). The Antibody Dilution Buffer was prepared by mixing 1 mL Blocking solution and 2 mL 1× Trish Wash Buffer (per plate) and kept on ice. Blocking Solution was added (150 μL/well) to each MSD plate using a multichannel repeater pipette. The plate was covered and incubated at room temperature on a plate shaker at 700 rpm for hr. The Bio Tek protocol RL-96w-wash-MSD_stacker_fromC was used to wash plates 3× with 150 μL/well. Cells were pelleted by centrifuging lysate plates at 2500×g for 5 mins. The Bravo protocol was used (transfer 25 ul supernatants from V-96 to assay plate) to transfer 25 μL sample lysate per well to each MSD plate. The plates were covered and incubated at room temperature on a plate shaker at 700 rpm for hr. The Bio Tek protocol RL-96w-wash-MSD_stacker_fromC was used to wash plates 3× with 150 μL/well. The Detection Antibody Solution was prepared by diluting the 60 μL of the 50× antibody stock in 2.94 mL of the Antibody Dilution Buffer (per plate) and kept on ice. 25 μL/well of detection antibody solution was added to each MSD plate. The plates were covered and incubated at room temperature on a plate shaker at 700 rpm for 1 hr. The Read Buffer was prepared by diluting 5 mL of 4× stock of Read Buffer to 1× in 15 mL water (per plate).
As for `C[C@H](CF)Nc1cc(Nc2cc(N)nc(C(F)F)n2)ncc1C(=O)NCc1cocn1` [Compound 177, (R)-6-((6-amino-2-(difluoromethyl)pyrimidin-4-yl)amino)-4-((1-fluoropropan-2-yl)amino)-N-(oxazol-4-ylmethyl)nicotinamide], the IC50 lay within 0.01 to 0.04 µM. Take `C[C@@H](CF)Nc1cc(Nc2cc(N)nc(C(F)F)n2)ncc1C(=O)NCc1ccccn1` [Compound 186, (S)-6-((6-amino-2-(difluoromethyl)pyrimidin-4-yl)amino)-4-((1-fluoropropan-2-yl)amino)-N-(pyridin-2-ylmethyl)nicotinamide]: the IC50 is under 0.01 µM. Turning to `C[C@@H](CF)Nc1cc(Nc2cc(N)nc(C(F)F)n2)ncc1C(=O)NC12CC(CO)(C1)C2` [Compound 188, (S)-6-((6-amino-2-(difluoromethyl)pyrimidin-4-yl)amino)-4-((1-fluoropropan-2-yl)amino)-N-(3-(hydroxymethyl)bicyclo[1.1.1]pentan-1-yl)nicotinamide], the IC50 lay in the range of 0.01 to 0.04 µM.

Regarding `COc1cc(Nc2cc(N)nc(C(F)F)n2)ncc1-c1cnn(C[C@H]2CCN2)c1` (single isomer, unassigned) [Compound 101, (R)-N4-(5-(1-(azetidin-2-ylmethyl)-1H-pyrazol-4-yl)-4-methoxypyridin-2-yl)-2-(difluoromethyl)pyrimidine-4,6-diamine or (S)-N4-(5-(1-(azetidin-2-ylmethyl)-1H-pyrazol-4-yl)-4-methoxypyridin-2-yl)-2-(difluoromethyl)pyrimidine-4,6-diamine], the IC50 was over 0.04 µM. In the case of `CC(C)(O)Cn1cc(-c2cnc(Nc3cc(N)nc(C(F)F)n3)cc2OC(F)F)cn1` [Compound 181, 1-(4-(6-((6-amino-2-(difluoromethyl)pyrimidin-4-yl)amino)-4-(difluoromethoxy)pyridin-3-yl)-1H-pyrazol-1-yl)-2-methylpropan-2-ol] it was under 0.01 µM; in that of `Cn1cc(-c2cnc(Nc3cc(N)nc(C(F)F)n3)cc2OCc2cccc(N)c2)cn1` [Compound 178, N4-(4-((3-aminobenzyl)oxy)-5-(1-methyl-1H-pyrazol-4-yl)pyridin-2-yl)-2-(difluoromethyl)pyrimidine-4,6-diamine], under 0.01 µM; in that of `CN[C@@H](C)Cn1cc(-c2cnc(Nc3cc(N)nc(C(F)F)n3)cc2OC(F)(F)F)cn1` (single isomer, unassigned) [Compound 195, (S)-2-(difluoromethyl)-N4-(5-(1-(2-(methylamino)propyl)-1H-pyrazol-4-yl)-4-(trifluoromethoxy)pyridin-2-yl)pyrimidine-4,6-diamine or (R)-2-(difluoromethyl)-N4-(5-(1-(2-(methylamino)propyl)-1H-pyrazol-4-yl)-4-(trifluoromethoxy)pyridin-2-yl)pyrimidine-4,6-diamine], under 0.01 µM. In the case of `CNC(=O)c1cnc(Nc2cc(N)nc(CF)n2)cc1NC(C)C` [Compound 9, 6-((6-amino-2-(fluoromethyl)pyrimidin-4-yl)amino)-4-(isopropylamino)-N-methylnicotinamide] it was under 0.01 µM; in that of `CCNC(=O)c1cnc(Nc2cc(N)nc(C(F)F)n2)cc1NCC` [Compound 30, 6-((6-amino-2-(difluoromethyl)pyrimidin-4-yl)amino)-N-ethyl-4-(ethylamino)nicotinamide], 0.01 to 0.04 µM. The result for `CCNc1cc(Nc2cc(N)nc(C(F)F)n2)ncc1C(=O)NCc1ncco1` [Compound 114, 6-((6-amino-2-(difluoromethyl)pyrimidin-4-yl)amino)-4-(ethylamino)-N-(oxazol-2-ylmethyl)nicotinamide] reads 0.01 to 0.04 µM; that for `COc1cc(Nc2cc(N)nc(C(F)F)n2)ncc1-c1cnn(C[C@H]2CCN2C)c1` (single isomer, unassigned) [Compound 138, (R)-2-(difluoromethyl)-N4-(4-methoxy-5-(1-((1-methylazetidin-2-yl)methyl)-1H-pyrazol-4-yl)pyridin-2-yl)pyrimidine-4,6-diamine or (S)-2-(difluoromethyl)-N4-(4-methoxy-5-(1-((1-methylazetidin-2-yl)methyl)-1H-pyrazol-4-yl)pyridin-2-yl)pyrimidine-4,6-diamine], under 0.01 µM. In the case of `CNCCn1cc(-c2cnc(Nc3cc(N)nc(C(F)F)n3)cc2OC2CC2)cn1` [Compound 136, N4-(4-cyclopropoxy-5-(1-(2-(methylamino)ethyl)-1H-pyrazol-4-yl)pyridin-2-yl)-2-(difluoromethyl)pyrimidine-4,6-diamine], the IC50 was under 0.01 µM.

Take `CCOc1cc(Nc2cc(N)nc(C(F)F)n2)ncc1-c1cnn(C2CNC2)c1` [Compound 98, N4-(5-(1-(azetidin-3-yl)-1H-pyrazol-4-yl)-4-ethoxypyridin-2-yl)-2-(difluoromethyl)pyrimidine-4,6-diamine]: the IC50 lay within 0.01 to 0.04 µM. The result for `CN1CC(n2cc(-c3cnc(Nc4cc(N)nc(C(F)F)n4)cc3OC3COC3)cn2)C1` [Compound 183, 2-(difluoromethyl)-N4-(5-(1-(1-methylazetidin-3-yl)-1H-pyrazol-4-yl)-4-(oxetan-3-yloxy)pyridin-2-yl)pyrimidine-4,6-diamine] reads over 0.04 µM; that for `CCOc1cc(Nc2cc(N)nc(C(F)F)n2)ncc1-c1cnn(CCN)c1` [Compound 81, N4-(5-(1-(2-aminoethyl)-1H-pyrazol-4-yl)-4-ethoxypyridin-2-yl)-2-(difluoromethyl)pyrimidine-4,6-diamine], 0.01 to 0.04 µM.

As to `[2H]C([2H])([2H])NC(=O)c1cnc(Nc2cc(N)nc(C(F)F)n2)cc1NC` [Compound 6, 6-((6-amino-2-(difluoromethyl)pyrimidin-4-yl)amino)-N-(methyl-d3)-4-(methylamino)nicotinamide], the IC50 was 0.01 to 0.04 µM. As for `CC(C)Oc1cc(Nc2cc(N)nc([C@H](C)F)n2)ncc1-c1cnn(C)c1` [Compound 51, (S)-2-(1-fluoroethyl)-N4-(4-isopropoxy-5-(1-methyl-1H-pyrazol-4-yl)pyridin-2-yl)pyrimidine-4,6-diamine], the IC50 was under 0.01 µM. As to `[2H]C([2H])([2H])Nc1cc(Nc2cc(N)nc(C(F)F)n2)ncc1C(=O)NC` [Compound 5, 6-((6-amino-2-(difluoromethyl)pyrimidin-4-yl)amino)-N-methyl-4-((methyl-d3)amino)nicotinamide], the IC50 is under 0.01 µM. In the case of `Cn1cc(-c2cnc(Nc3cc(N)nc(C(F)F)n3)cc2OCC2CCO2)cn1` (stereo not shown) [Compound 105, 2-(difluoromethyl)-N4-(5-(1-methyl-1H-pyrazol-4-yl)-4-(oxetan-2-ylmethoxy)pyridin-2-yl)pyrimidine-4,6-diamine] it was 0.01 to 0.04 µM. For `CNC(=O)c1cnc(Nc2cc(N)nc(C(F)F)n2)cc1NCC1CCC1` [Compound 61, 6-((6-amino-2-(difluoromethyl)pyrimidin-4-yl)amino)-4-((cyclobutylmethyl)amino)-N-methylnicotinamide], the IC50 lay within 0.01 to 0.04 µM. In the case of `Nc1cc(Nc2cc(NC3CC3)c(C(=O)NCc3cocn3)cn2)nc(C(F)F)n1` [Compound 134, 6-((6-amino-2-(difluoromethyl)pyrimidin-4-yl)amino)-4-(cyclopropylamino)-N-(oxazol-4-ylmethyl)nicotinamide], the IC50 was under 0.01 µM. Regarding `CCCNc1cc(Nc2cc(N)nc(C(F)F)n2)ncc1C(=O)NC` [Compound 26, 6-((6-amino-2-(difluoromethyl)pyrimidin-4-yl)amino)-N-methyl-4-(propylamino)nicotinamide], the IC50 was under 0.01 µM.

In general, IC50 refers to the midpoint of a concentration-inhibition curve.
